These molecules were tested on VCaP cells (assay: VCaP growth inhibition assay). Conditions: 30 pM R1881, 9 days, CTG.
Assay type: cell-based
Experimental: VCaP cells (ATCC Cat #CRL-2876) are plated at 1×10^4 cells per well of a white plastic 96-well cluster plate (Thermo Scientific Nunc Cat #165306) in 100 uL phenol red-free DMEM (Gibco Cat #21063-029) media with 5% CSS (Omega Scientific Cat #FB-04). Cluster plates are returned to the incubator (37*C/5% CO2) for 72 hours prior to treatment. Just prior to treatment, 100 μL of phenol red-free DMEM/5% CSS and […] R1881 (Sigma Cat #R0908-10 mg) was added to each well of the cluster plates (Final R1881 concentration=30 pM). Compounds (200×) were added to each well in a volume of 1 uL, with serial dilutions (1:5) from 20 uM to 2 pM (final concentrations in well are 100 nM to 10 fM). Cluster plates are returned to the incubator for 9 days.
After the 9-day treatment period, media was removed from the cluster plates by inversion and 100 uL room temperature CTG reagent (Promega Cat #G7573) is added to each well. The cluster plates are placed on a shaker and incubated at room temperature for 20 minutes. Following this shaking/incubation, cluster plates are read on a luminometer (BMG ClarioStar). IC50 values are obtained by graphing the RLU data vs. compound concentration with nonlinear regression 4-parameter logistic curves (GraphPad Prism).

| IC50 [nM] | Compound |
| --- | --- |
| 0.1 to 1 | COc1cc(OC2C(C)(C)C(NC(=O)c3ccc(N4CCC5(CCC(n6cc(-c7cc8cccc(-c9nn(C%10CCOCC%10)c%10c9CN(C(C)=O)CC%10)c8cn7)cn6)CC5)CC4)cc3)C2(C)C)ccc1C#N (centres unmarked) [Compound 269, 4-[9-[4-[8-(5-acetyl-1-tetrahydropyran-4-yl-6,7-dihydro-4H-pyrazolo[4,3-c]pyridin-3-yl)-3-isoquinolyl]pyrazol-1-yl]-3-azaspiro[5.5]undecan-3-yl]-N-[3-(4-cyano-3-methoxy-phenoxy)-2,2,4,4-tetramethyl-cyclobutyl]benzamide] |
| ≤ 0.1 | COc1cc(OC2C(C)(C)C(NC(=O)c3ccc(N4CCC(N5CCC6(CCC(n7nc(N8CCCc9cc(-c%10cnn(C)c%10)c(C(F)F)cc98)c8c7CCN(C(C)=O)C8)CC6)CC5)CC4)cc3)C2(C)C)ccc1C#N (centres unmarked) [Compound 300, 4-[4-[9-[5-acetyl-3-[7-(difluoromethyl)-6-(1-methylpyrazol-4-yl)-3,4-dihydro-2H-quinolin-1-yl]-6,7-dihydro-4H-pyrazolo[4,3-c]pyridin-1-yl]-3-azaspiro[5.5]undecan-3-yl]-1-piperidyl]-N-[3-(4-cyano-3-methoxy-phenoxy)-2,2,4,4-tetramethyl-cyclobutyl]benzamide] |
| 1 to 100 | COc1cc(OC2C(C)(C)C(NC(=O)c3ccc(N4CCC5(CC4)CC(Oc4ccc(-c6cc7c(cc6C(F)F)N(c6nn(C8CCOCC8)c8c6CN(C(C)=O)CC8)CCC7)cn4)C5)cc3)C2(C)C)ccc1C#N (centres unmarked) [Compound 306, 4-[2-[[5-[1-(5-acetyl-1-tetrahydropyran-4-yl-6,7-dihydro-4H-pyrazolo[4,3-c]pyridin-3-yl)-7-(difluoromethyl)-3,4-dihydro-2H-quinolin-6-yl]-2-pyridyl]oxy]-7-azaspiro[3.5]nonan-7-yl]-N-[3-(4-cyano-3-methoxy-phenoxy)-2,2,4,4-tetramethyl-cyclobutyl]benzamide] |
| ≤ 0.1 | COc1cc(OC2C(C)(C)C(NC(=O)c3ccc(N4CC(N5CCC6(CCC(n7nc(N8CCCc9cc(-c%10cnn(C)c%10)c(C(F)F)cc98)c8c7CCN(C(C)=O)C8)CC6)CC5)C4)cc3)C2(C)C)ccc1C#N (centres unmarked) [Compound 301, 4-[3-[9-[5-acetyl-3-[7-(difluoromethyl)-6-(1-methylpyrazol-4-yl)-3,4-dihydro-2H-quinolin-1-yl]-6,7-dihydro-4H-pyrazolo[4,3-c]pyridin-1-yl]-3-azaspiro[5.5]undecan-3-yl]azetidin-1-yl]-N-[3-(4-cyano-3-methoxy-phenoxy)-2,2,4,4-tetramethyl-cyclobutyl]benzamide] |

Continued, molecule first:

| Compound | IC50 [nM] |
| --- | --- |
| CC(=O)N1CCc2c(c(Nc3ccc(-c4cnn(C)c4)cc3F)nn2C2CCN(CCC3CCN(c4ncc(C(=O)NC5C(C)(C)C(Oc6ccc(C#N)c(Cl)c6)C5(C)C)cn4)CC3)CC2)C1 (centres unmarked) [Compound 168, 2-[4-[2-[4-[5-acetyl-3-[2-fluoro-4-(1-methylpyrazol-4-yl)anilino]-6,7-dihydro-4H-pyrazolo[4,3-c]pyridin-1-yl]-1-piperidyl]ethyl]-1-piperidyl]-N-[3-(3-chloro-4-cyano-phenoxy)-2,2,4,4-tetramethyl-cyclobutyl]pyrimidine-5-carboxamide] | 0.1 to 1 |
| CC(=O)N1CCc2c(c(N3CCCc4cc(-c5cnn(C)c5)c(C(F)F)cc43)nn2C2CCN(CCOCc3ncc(C(=O)NC4C(C)(C)C(Oc5ccc(C#N)c(Cl)c5)C4(C)C)cn3)CC2)C1 (centres unmarked) [Compound 88, 2-[2-[4-[5-acetyl-3-[7-(difluoromethyl)-6-(1-methylpyrazol-4-yl)-3,4-dihydro-2H-quinolin-1-yl]-6,7-dihydro-4H-pyrazolo[4,3-c]pyridin-1-yl]-1-piperidyl]ethoxymethyl]-N-[3-(3-chloro-4-cyano-phenoxy)-2,2,4,4-tetramethyl-cyclobutyl]pyrimidine-5-carboxamide] | 0.1 to 1 |
| CC(=O)N1CCc2c(c(Nc3ccc(-c4cnn(C)c4)cc3F)nn2C2CN(CCN3CCN(c4ncc(C(=O)NC5C(C)(C)C(Oc6ccc(C#N)c(Cl)c6)C5(C)C)cn4)CC3)C2)C1 (centres unmarked) [Compound 164, 2-[4-[2-[3-[5-acetyl-3-[2-fluoro-4-(1-methylpyrazol-4-yl)anilino]-6,7-dihydro-4H-pyrazolo[4,3-c]pyridin-1-yl]azetidin-1-yl]ethyl]piperazin-1-yl]-N-[3-(3-chloro-4-cyano-phenoxy)-2,2,4,4-tetramethyl-cyclobutyl]pyrimidine-5-carboxamide] | ≤ 0.1 |
| CC(=O)N1CCc2c(c(N3CCCc4cc(-c5cnn(C)c5)c(C(F)F)cc43)nn2C2CCN(C3CCN(c4ccc5c(n4)CN(C4C(C)(C)C(Oc6ccc(C#N)c(Cl)c6)C4(C)C)C5=O)CC3)CC2)C1 (centres unmarked) [Compound 297, 4-[3-[2-[4-[4-[5-acetyl-3-[7-(difluoromethyl)-6-(1-methylpyrazol-4-yl)-3,4-dihydro-2H-quinolin-1-yl]-6,7-dihydro-4H-pyrazolo[4,3-c]pyridin-1-yl]-1-piperidyl]-1-piperidyl]-5-oxo-7H-pyrrolo[3,4-b]pyridin-6-yl]-2,2,4,4-tetramethyl-cyclobutoxy]-2-chloro-benzonitrile] | 1 to 100 |
| CC(=O)N1CCc2c(c(Nc3ccc(-c4cnn(C)c4)cc3F)nn2CCOC2CCN(c3ncc(C(=O)NC4C(C)(C)C(Oc5ccc(C#N)c(Cl)c5)C4(C)C)cn3)CC2)C1 (centres unmarked) [Compound 2, 2-[4-[2-[5-acetyl-3-[2-fluoro-4-(1-methylpyrazol-4-yl)anilino]-6,7-dihydro-4H-pyrazolo[4,3-c]pyridin-1-yl]ethoxy]-1-piperidyl]-N-[3-(3-chloro-4-cyano-phenoxy)-2,2,4,4-tetramethyl-cyclobutyl]pyrimidine-5-carboxamide] | 1 to 100 |
| CC(=O)N1CCc2c(c(Nc3ccc(-c4cnn(C)c4)cc3F)nn2C2CN(C(=O)CN3CCN(c4ncc(C(=O)NC5C(C)(C)C(Oc6ccc(C#N)c(Cl)c6)C5(C)C)cn4)CC3)C2)C1 (centres unmarked) [Compound 165, 2-[4-[2-[3-[5-acetyl-3-[2-fluoro-4-(1-methylpyrazol-4-yl)anilino]-6,7-dihydro-4H-pyrazolo[4,3-c]pyridin-1-yl]azetidin-1-yl]-2-oxo-ethyl]piperazin-1-yl]-N-[3-(3-chloro-4-cyano-phenoxy)-2,2,4,4-tetramethyl-cyclobutyl]pyrimidine-5-carboxamide] | ≤ 0.1 |
| COc1cc(OC2C(C)(C)C(NC(=O)c3ccc(N4CCC5(CC4)CCN(c4ccc(-c6cc7cccc(-c8nn(C9CCOCC9)c9c8CN(C(C)=O)CC9)c7cn6)cn4)CC5)cc3)C2(C)C)ccc1C#N (centres unmarked) [Compound 266, 4-[3-[5-[8-(5-acetyl-1-tetrahydropyran-4-yl-6,7-dihydro-4H-pyrazolo[4,3-c]pyridin-3-yl)-3-isoquinolyl]-2-pyridyl]-3,9-diazaspiro[5.5]undecan-9-yl]-N-[3-(4-cyano-3-methoxy-phenoxy)-2,2,4,4-tetramethyl-cyclobutyl]benzamide] | 0.1 to 1 |
| CC(=O)N1CCc2c(c(Nc3ccc(-c4cnn(C)c4)cc3F)nn2C2CCN(CC3CCN(c4ncc(C(=O)NC5C(C)(C)C(Oc6ccc(C#N)c(Cl)c6)C5(C)C)cn4)CC3)C2)C1 (centres unmarked) [Compound 7, 2-[4-[[3-[5-acetyl-3-[2-fluoro-4-(1-methylpyrazol-4-yl)anilino]-6,7-dihydro-4H-pyrazolo[4,3-c]pyridin-1-yl]pyrrolidin-1-yl]methyl]-1-piperidyl]-N-[3-(3-chloro-4-cyano-phenoxy)-2,2,4,4-tetramethyl-cyclobutyl]pyrimidine-5-carboxamide] | 0.1 to 1 |

Each molecule was assayed on AR / CBP ternary complex (assay: Ternary complex formation assay (sandwich ELISA, AR capture / CBP detection) in VCaP cell lysates). Conditions: 1.5 hours treatment, sandwich ELISA (AR capture, CBP or p300 detection).
Assay type: cell-based
Summary of the method: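 VCaP cells (50K/well, 5% charcoal-stripped FBS, ≥3 days) treated with bifunctional compound for 1.5 h, then lysed 30 min at 4 °C. AR captured on anti-AR (AR 441) plates; bound CBP or p300 detected by rabbit mAb plus HRP secondary. QuantaRed chemifluorescence read at ex 570/em 585, immediately and at 5 and 15 min.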

| EC50 [nM] | Compound |
| --- | --- |
| 1 to 10 | COc1cc(OC2C(C)(C)C(NC(=O)c3ccc(N4CC(N5CCCC6(CCC(n7nc(N8CCCc9cc(-c%10cnn(C)c%10)c(C(F)F)cc98)c8c7CCN(C(C)=O)C8)CC6)C5)C4)cc3)C2(C)C)ccc1C#N (centres unmarked) [Compound 416, 4-[3-[9-[5-acetyl-3-[7-(difluoromethyl)-6-(1-methylpyrazol-4-yl)-3,4-dihydro-2H-quinolin-1-yl]-6,7-dihydro-4Hpyrazolo[4,3-c]pyridin-1-yl]-2-azaspiro[5.5]undecan-2-yl]azetidin-1-yl]-N-[3-(4-cyano-3-methoxy-phenoxy)-2,2,4,4-tetramethyl-cyclobutyl]benzamide] |
| < 1 | CC(=O)N1CCc2c(c(-c3cccc4cc(-c5cnn(CC6CCN(c7ncc(C(=O)NC8C(C)(C)C(Oc9ccc(C#N)c(Cl)c9)C8(C)C)cn7)CC6)c5)ncc34)nn2C2CCOCC2)C1 (centres unmarked) [Compound 137, 2-[4-[[4-[8-(5-acetyl-1-tetrahydropyran-4-yl-6,7-dihydro-4H-pyrazolo[4,3-c]pyridin-3-yl)-3-isoquinolyl]pyrazol-1-yl]methyl]-1-piperidyl]-N-[3-(3-chloro-4-cyano-phenoxy)-2,2,4,4-tetramethyl-cyclobutyl]pyrimidine-5-carboxamide] |

Source: US20250129070A1, “BIFUNCTIONAL ANDROGEN RECEPTOR COMPOUNDS” (priority 2023, published 2025)
